Some test systems named below: 786-0; ACHN; COLO 205; IGROV-1; K562; MCF7; MDA-MB-231; MDA-MB-435; MDA-N; NCI-H460; NCI-H522; OVCAR-5; SF-295; SF-539; SK-MEL-28; SNB-75; SR; T47D; UACC-62; UO-31.
Holding throughout (assay): NCI anticancer screen, dose series, 48 h

The structures appear in SMILES notation.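 Dose response: 5 concentrations. Exposure: 48 h. Format: 96-well plates. Endpoint: linear interpolation; highest concentration if not reached. GI50: concentration for 50% inhibition of growth.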 Activity calls are given as the source filed them. Cut-off read from the data, not from the text of the source: active = GI50 up to about 1.1 µM and inactive = higher.

Regarding `O=C(NC(OCc1ccccc1)(C(F)(F)F)C(F)(F)F)OCc1ccccc1`, the GI50 was 16.5 µM (inactive) with 786-0; 15.7 µM (inactive) in the test with ACHN; 17.8 µM (inactive) in the test on COLO 205; 15.1 µM (inactive) in the test on IGROV-1; 17.1 µM (inactive) with K562; 16.4 µM (inactive) in the test on MCF7. In addition, the GI50 was 17.7 µM (inactive) with MDA-MB-231; 17.3 µM (inactive) in the test on MDA-MB-435; 15.2 µM (inactive) in the test on MDA-N; 16.1 µM (inactive) in the test with NCI-H460; 13.6 µM (inactive) in the test with NCI-H522; 14.3 µM (inactive) in the test with OVCAR-5. In addition, the GI50 with SF-295 is 17.6 µM (inactive); in the test with SF-539 it was 17.3 µM (inactive); with SK-MEL-28 it was 17.7 µM (inactive); with SNB-75, 15.6 µM (inactive); in the test on SR, 12 µM (inactive); in the test on T47D, 15.7 µM (inactive). The results for the GI50 in the test with UACC-62 and with UO-31 were 13.9 µM (inactive) and 11.2 µM (inactive), respectively.

Take `C=CC1(C)OC2(CCN(C(=O)OCC)CC2)OC1C` (stereo not given): the GI50 in the test on 786-0 was > 100 µM (inactive); in the test with ACHN, > 100 µM (inactive); in the test with COLO 205, > 100 µM (inactive); with IGROV-1, > 100 µM (inactive); in the test on K562, 45.7 µM (inactive); with MCF7, > 100 µM (inactive). Further, the GI50 in the test on MDA-MB-231, with MDA-MB-435, in the test on MDA-N, in the test on NCI-H460, with NCI-H522 and in the test on OVCAR-5 was > 100 µM (inactive) throughout. Moreover, the GI50 in the test on SF-295, in the test with SF-539, in the test with SK-MEL-28, with SNB-75, in the test with SR and in the test on T47D was > 100 µM (inactive) in each case. Also, the GI50 in the test on UACC-62 and with UO-31 was > 100 µM (inactive) in each case.

In the case of `CCCCCOC(=O)c1cc2cc(CCl)ccc2oc1=O`, the GI50 with 786-0 was 3.02 µM (inactive); in the test on ACHN, 0.537 µM (active); in the test on COLO 205 it was 2.36 µM (inactive); with IGROV-1, 10.3 µM (inactive); with K562, 3.79 µM (inactive); with MCF7, 10.4 µM (inactive). In addition, the GI50 was 16.5 µM (inactive) in the test on MDA-MB-231; 1.85 µM (inactive) with MDA-MB-435; 2.92 µM (inactive) with MDA-N; 17.2 µM (inactive) in the test on NCI-H460; 0.213 µM (active) with NCI-H522; 14.4 µM (inactive) with OVCAR-5. For the same compound, the GI50 in the test on SF-295 was 13.7 µM (inactive); in the test with SF-539 it was 27.6 µM (inactive); in the test with SK-MEL-28, 6.49 µM (inactive); with SNB-75 it was 8.22 µM (inactive); with SR, 8.07 µM (inactive); with T47D, 4.55 µM (inactive). For the same compound, the GI50 is 1.64 µM (inactive) in the test with UACC-62 and 2.06 µM (inactive) in the test with UO-31.

On to `CCOC(NC(=O)CC)(C(F)(F)F)C(F)(F)F`, for which the GI50 in the test on 786-0, in the test with ACHN, with COLO 205, in the test with IGROV-1, in the test with K562 and in the test with MCF7 was > 100 µM (inactive) throughout. The GI50 in the test on MDA-MB-231, in the test with MDA-MB-435, in the test on MDA-N, with NCI-H460, in the test on NCI-H522 and in the test with OVCAR-5 was > 100 µM (inactive) in each case. Moreover, the GI50 with SF-295, with SF-539, in the test on SK-MEL-28, in the test on SNB-75, in the test on SR and with T47D was > 100 µM (inactive) in each case. Besides, the GI50 in the test on UACC-62 and with UO-31 was > 100 µM (inactive) in each case.

Take `Oc1c(C(Nc2ccccn2)c2ccccc2)ccc2cccnc12` (stereo not given): the GI50 with 786-0 is 2.76 µM (inactive); in the test with ACHN it was 3.56 µM (inactive); in the test with COLO 205, 4.74 µM (inactive); in the test with IGROV-1 it was 3.33 µM (inactive); in the test on K562, 3.22 µM (inactive); in the test with MCF7, 4.04 µM (inactive). The GI50 is 3.08 µM (inactive) in the test on MDA-MB-231; 5.73 µM (inactive) in the test with MDA-MB-435; 5.7 µM (inactive) with MDA-N; 2.11 µM (inactive) in the test with NCI-H460; 2.68 µM (inactive) in the test with NCI-H522; 7.78 µM (inactive) with OVCAR-5. Moreover, the GI50 with SF-295 is 3.55 µM (inactive); in the test on SF-539, 3.18 µM (inactive); in the test on SK-MEL-28, 6.22 µM (inactive); in the test on SNB-75, 6.24 µM (inactive); in the test with SR, 2.31 µM (inactive); with T47D, 3.94 µM (inactive). The GI50 is 4.33 µM (inactive) with UACC-62 and 3.14 µM (inactive) in the test on UO-31.

As to `O=C1CSC(c2ccc(Cl)cc2)N1c1ccc(Oc2ccc(Cl)cc2)c(Cl)c1` (stereo not given), the GI50 is 16.8 µM (inactive) in the test on 786-0; 17.4 µM (inactive) in the test with ACHN; 18.2 µM (inactive) in the test on COLO 205; 14.8 µM (inactive) in the test on IGROV-1; 17.3 µM (inactive) in the test on K562; 21.9 µM (inactive) in the test on MCF7. For the same compound, the GI50 in the test on MDA-MB-231 is 16.4 µM (inactive); in the test on MDA-MB-435, 17.6 µM (inactive); in the test on MDA-N, 14.5 µM (inactive); with NCI-H460, 18.5 µM (inactive); in the test with NCI-H522 it was 7.13 µM (inactive); in the test with OVCAR-5, 14.2 µM (inactive). Also, the GI50 was 16.3 µM (inactive) in the test on SF-295; 14.6 µM (inactive) in the test with SF-539; 17.7 µM (inactive) in the test with SK-MEL-28; 12.3 µM (inactive) with SNB-75; 18.4 µM (inactive) in the test on SR; 10.7 µM (inactive) in the test with T47D. Also, the GI50 in the test with UACC-62 was 15.4 µM (inactive); with UO-31 it was 8.26 µM (inactive).

As to `C=CCN(c1cc(OC)c2[nH]c(C(=O)O)c(C)c2c1[N+](=O)[O-])S(C)(=O)=O`, the GI50 with 786-0, in the test on ACHN, with COLO 205, with IGROV-1, in the test with K562 and in the test on MCF7 was > 100 µM (inactive) each time. Besides, the GI50 in the test on MDA-MB-231 is > 100 µM (inactive); with MDA-MB-435, > 100 µM (inactive); with MDA-N, > 100 µM (inactive); in the test on NCI-H460 it was > 100 µM (inactive); with NCI-H522, 10 µM (inactive); in the test on OVCAR-5 it was > 100 µM (inactive). In addition, the GI50 in the test on SF-295, in the test with SF-539, in the test on SK-MEL-28, with SNB-75, with SR and in the test on T47D was > 100 µM (inactive) each time. Moreover, the GI50 with UACC-62 and in the test on UO-31 was > 100 µM (inactive) in each case.

With `CN1C(=O)c2ccccc2OC12C=Cc1c(ccc3ccccc13)O2` (stereo not given), the GI50 is 7.19 µM (inactive) with 786-0; 3.1 µM (inactive) in the test with ACHN; 3.31 µM (inactive) in the test on COLO 205; 3.5 µM (inactive) in the test on IGROV-1; 2.82 µM (inactive) in the test on K562; 4.4 µM (inactive) in the test on MCF7. Besides, the GI50 with MDA-MB-231 was 13.1 µM (inactive); with MDA-MB-435 it was 2.29 µM (inactive); in the test on MDA-N, 2.36 µM (inactive); with NCI-H460, 6.59 µM (inactive); with NCI-H522, 0.682 µM (active); in the test on OVCAR-5 it was 6.47 µM (inactive). Besides, the GI50 in the test on SF-295 is 2.45 µM (inactive); in the test with SF-539 it was 5.58 µM (inactive); with SK-MEL-28, 14.2 µM (inactive); with SNB-75, 4.84 µM (inactive); in the test with SR it was 3.48 µM (inactive); with T47D it was 5.43 µM (inactive). The GI50 in the test on UACC-62 was 5.19 µM (inactive); in the test on UO-31, 6.52 µM (inactive).

For `O=C1OC(c2ccccc2)=N/C1=C\c1ccc([N+](=O)[O-])cc1`, the GI50 with 786-0 is 26.9 µM (inactive); in the test on ACHN, 14.3 µM (inactive); in the test on COLO 205, > 100 µM (inactive); in the test with IGROV-1 it was 27.9 µM (inactive); in the test on K562, > 100 µM (inactive); in the test with MCF7, 60 µM (inactive). The GI50 was 44.6 µM (inactive) with MDA-MB-231; > 100 µM (inactive) in the test with MDA-MB-435; > 100 µM (inactive) in the test with MDA-N; > 100 µM (inactive) with NCI-H460; 9.57 µM (inactive) in the test on NCI-H522; > 100 µM (inactive) in the test with OVCAR-5. Also, the GI50 is 32.7 µM (inactive) with SF-295; 9.16 µM (inactive) with SF-539; > 100 µM (inactive) with SK-MEL-28; 22.9 µM (inactive) in the test with SNB-75; 2.35 µM (inactive) in the test on SR; 22.3 µM (inactive) in the test with T47D. Besides, the GI50 in the test on UACC-62 was 26.5 µM (inactive); with UO-31 it was 50.7 µM (inactive).

The values are drawn from ChEMBL document CHEMBL1201862, “PubChem BioAssay data set” (2004).
